Reference: US20210060121A1, “NOVEL ANTIBIOTICS AND METHODS OF USING THEM” (priority 2018, published 2021)
≈ marks a conversion by molar mass, not a printed value.

Assays:
[1] = tested on: MRSA SA11; format: cell-based, Staphylococcus aureus
Experimental: (§1) Susceptibility to teixobactin and its analogues was tested on the selected Gram-positive strains using Tecan Freedom EVO high-throughput automated platform, following the standard broth dilution method as described by the Clinical and Laboratory Standards Institute ^3. MICS were determined according to CLSI guideline.

[2] = tested on: MRSA(SA11I4); format: cell-based, Staphylococcus aureus
Experimental: as §1

[3] = tested on: MRSA SA86; format: cell-based, Staphylococcus aureus
Experimental: as §1

[4] = tested on: SA (ATCC29213); format: cell-based, Staphylococcus aureus
Experimental: as §1

[5] = tested on: MRSA SA88; format: cell-based, Staphylococcus aureus
Experimental: as §1

[6] = tested on: MRSA and SA strains; experiment: MIC, summary over S. aureus strains; format: cell-based, Staphylococcus aureus; conditions: against MRSA and SA strains; Table 2
Experimental: as §1

[7] = tested on: Enterococcus ET60; format: cell-based
Experimental: as §1

[8] = tested on: Enterococcus ATCCET; format: cell-based
Experimental: as §1

[9] = tested on: Streptococcus faecalis SF; format: cell-based
Experimental: as §1

[10] = tested on: Enterococcus ET6; format: cell-based
Experimental: as §1

[11] = tested on: Streptococcus faecalis and Enterococcus strains; experiment: MIC, text summary over Streptococcus faecalis and Enterococcus; format: cell-based; conditions: against Streptococcus faecalis and Enterococcus strains; Table 2
Experimental: as §1

Minimum inhibitory concentration (MIC) MRSA SA11 [1]: 4 µg/mL (≈ 3.19 µM) | Minimum inhibitory concentration (MIC) MRSA(SA11I4) [2]: 8 µg/mL (≈ 6.38 µM) | Minimum inhibitory concentration (MIC) MRSA SA86 [3]: 4 µg/mL (≈ 3.19 µM) | Minimum inhibitory concentration (MIC) SA (ATCC29213) [4]: 4 µg/mL (≈ 3.19 µM) | Minimum inhibitory concentration (MIC) MRSA SA88 [5]: 4 µg/mL (≈ 3.19 µM) | Minimum inhibitory concentration (MIC) Enterococcus ET60 [7]: 1 µg/mL (≈ 0.798 µM) | Minimum inhibitory concentration (MIC) Enterococcus ATCCET [8]: 2 µg/mL (≈ 1.6 µM) | Minimum inhibitory concentration (MIC) Streptococcus faecalis SF [9]: 1 µg/mL (≈ 0.798 µM) | Minimum inhibitory concentration (MIC) Enterococcus ET6 [10]: 2 µg/mL (≈ 1.6 µM)
SMILES: CC[C@@H](C)[C@@H](NC(=O)[C@@H](CCC(N)=O)NC(=O)[C@@H](NC(=O)[C@@H](NC(=O)[C@@H](Cc1ccccc1)NC)[C@@H](C)CC)[C@@H](C)CC)C(=O)N[C@H](C(=O)N[C@@H](CO)C(=O)N[C@H]1C(=O)N[C@@H](C)C(=O)N[C@@H](C2CCCCC2)C(=O)N[C@@H]([C@@H](C)CC)C(=O)O[C@H]1C)[C@@H](C)CC [T88]
Activities, times lower than teixobactin [6]: about 4 times | Activities compared with teixobactin [11]: better than teixobactin
